Reference: ChEMBL document CHEMBL1145395, “De novo design of selective antibiotic peptides by incorporation of unnatural amino acids” (J Med Chem, 2007)
Values after ≈ are worked out from the molar mass of the structure shown. Active and inactive are the calls of the source. The calls are words filed in the database; no cut-off is given here. Non-standard residues stand in square brackets, D forms with d. Residues, ends and D or L forms follow the SMILES beside them. ξ: configuration not given here. Pro(3ξ,4ξ-(CH2)4) = O=C(O)[C@H]1NCC2CCCCC21; Oic = O=C(O)[C@@H]1C[C@@H]2CCCC[C@@H]2N1; Tic = O=C(O)[C@@H]1Cc2ccccc2CN1; βAla = NCCC(=O)O

Legend:
Staphylococcus aureus = assay: Antibacterial activity against methicillin/gentamicin/tetracycline resistant Staphylococcus aureus ATCC 33592; type: functional
[1] = Toxicity to mouse RBC assessed as hemolytic activity at 100 uM; type: cell-based, Erythrocyte; conditions: red blood cells, read-out: Activity
Salmonella typhimurium = assay: Antibacterial activity against Salmonella Typhimurium ATCC 13311; type: functional; conditions: Salmonella enterica subsp. enterica serovar Typhimurium

Structure (SMILES): CSCC[C@H](NC(=O)[C@H](CC(C)C)NC(=O)[C@H](CCC(=O)O)NC(=O)[C@@H]1C2CCCCC2CN1C(=O)[C@@H]1Cc2ccccc2CN1C(=O)[C@H](CCCCN)NC(=O)CNC(=O)[C@H](CC(C)C)NC(=O)[C@H](CCCCN)NC(=O)CNC(=O)[C@@H]1C2CCCCC2CN1C(=O)[C@@H]1Cc2ccccc2CN1C(=O)[C@H](CO)NC(=O)[C@H](CC(N)=O)NC(=O)[C@H](CCSC)NC(=O)[C@H](CC(C)C)NC(=O)[C@@H](N)CCC(=O)O)C(=O)N[C@@H](CO)C(N)=O (stereo partly drawn) (H-ELMNS[Tic][Pro(3ξ,4ξ-(CH2)4)]GKLGK[Tic][Pro(3ξ,4ξ-(CH2)4)]ELMS-NH2)
- Activity (Staphylococcus aureus): inactive
- hemolysis at 100 µM [1]: 23%
- Activity (Salmonella typhimurium): inactive

Structure (SMILES): CSCC[C@H](NC(=O)[C@H](CC(C)C)NC(=O)[C@H](CCC(=O)O)NC(=O)[C@@H]1C2CCCCC2CN1C(=O)[C@@H]1Cc2ccccc2CN1C(=O)[C@H](CCCCN)NC(=O)CNC(=O)[C@@H]1C2CCCCC2CN1C(=O)[C@@H]1Cc2ccccc2CN1C(=O)[C@H](CC(C)C)NC(=O)CNC(=O)[C@@H]1C2CCCCC2CN1C(=O)[C@@H]1Cc2ccccc2CN1C(=O)[C@H](CCCCN)NC(=O)CNC(=O)[C@@H]1C2CCCCC2CN1C(=O)[C@@H]1Cc2ccccc2CN1C(=O)[C@H](CC(C)C)NC(=O)CNC(=O)[C@@H]1C2CCCCC2CN1C(=O)[C@@H]1Cc2ccccc2CN1C(=O)[C@H](CO)NC(=O)[C@H](CC(N)=O)NC(=O)[C@H](CCSC)NC(=O)[C@H](CC(C)C)NC(=O)[C@@H](N)CCC(=O)O)C(=O)N[C@@H](CC(N)=O)C(=O)N[C@@H](CO)C(N)=O (stereo partly drawn) (H-ELMNS[Tic][Pro(3ξ,4ξ-(CH2)4)]GL[Tic][Pro(3ξ,4ξ-(CH2)4)]GK[Tic][Pro(3ξ,4ξ-(CH2)4)]GL[Tic][Pro(3ξ,4ξ-(CH2)4)]GK[Tic][Pro(3ξ,4ξ-(CH2)4)]ELMNS-NH2)
- Activity (Staphylococcus aureus): inactive
- hemolysis at 100 µM [1]: 3%
- Activity (Salmonella typhimurium): inactive

Structure (SMILES): CSCC[C@H](NC(=O)[C@H](CC(C)C)NC(=O)[C@H](CCC(=O)O)NC(=O)[C@@H]1C[C@@H]2CCCC[C@@H]2N1C(=O)[C@@H]1Cc2ccccc2CN1C(=O)[C@H](Cc1ccccc1)NC(=O)CCNC(=O)[C@@H]1C[C@@H]2CCCC[C@@H]2N1C(=O)[C@@H]1Cc2ccccc2CN1C(=O)[C@H](CCCCN)NC(=O)CCNC(=O)[C@@H]1C[C@@H]2CCCC[C@@H]2N1C(=O)[C@@H]1Cc2ccccc2CN1C(=O)[C@H](Cc1ccccc1)NC(=O)CCNC(=O)[C@@H]1C[C@@H]2CCCC[C@@H]2N1C(=O)[C@@H]1Cc2ccccc2CN1C(=O)[C@H](CCCCN)NC(=O)CCNC(=O)[C@@H]1C[C@@H]2CCCC[C@@H]2N1C(=O)[C@@H]1Cc2ccccc2CN1C(=O)[C@H](CC(C)C)NC(=O)CNC(=O)[C@H](CCCCN)NC(=O)CN)C(=O)N[C@@H](CC(N)=O)C(=O)N[C@@H](CO)C(N)=O (H-GKGL[Tic][Oic][βAla]K[Tic][Oic][βAla]F[Tic][Oic][βAla]K[Tic][Oic][βAla]F[Tic][Oic]ELMNS-NH2)
- hemolysis at 100 µM [1]: 55%

Structure (SMILES): CC(C)C[C@H](NC(=O)CNC(=O)[C@H](CCCCN)NC(=O)CN)C(=O)N1Cc2ccccc2C[C@H]1C(=O)N1CC2CCCCC2[C@H]1C(=O)N[C@@H](Cc1ccccc1)C(=O)N[C@@H](CCCCN)C(=O)N1Cc2ccccc2C[C@H]1C(=O)N1CC2CCCCC2[C@H]1C(=O)N[C@@H](CCCCN)C(=O)N[C@@H](Cc1ccccc1)C(=O)N1Cc2ccccc2C[C@H]1C(=O)N1CC2CCCCC2[C@H]1C(=O)N[C@@H](Cc1ccccc1)C(=O)N[C@@H](CCCCN)C(=O)N1Cc2ccccc2C[C@H]1C(=O)N1CC2CCCCC2[C@H]1C(=O)N[C@@H](CCCCN)C(=O)N[C@@H](Cc1ccccc1)C(=O)N1Cc2ccccc2C[C@H]1C(=O)N1CC2CCCCC2[C@H]1C(=O)N[C@@H](Cc1ccccc1)C(=O)N[C@@H](CCCCN)C(=O)N1Cc2ccccc2C[C@H]1C(=O)N1CC2CCCCC2[C@H]1C(=O)N[C@@H](Cc1ccccc1)C(=O)N[C@@H](CCCCN)C(=O)N[C@@H](CCCNC(=N)N)C(N)=O (stereo partly drawn) (H-GKGL[Tic][Pro(3ξ,4ξ-(CH2)4)]FK[Tic][Pro(3ξ,4ξ-(CH2)4)]KF[Tic][Pro(3ξ,4ξ-(CH2)4)]FK[Tic][Pro(3ξ,4ξ-(CH2)4)]KF[Tic][Pro(3ξ,4ξ-(CH2)4)]FK[Tic][Pro(3ξ,4ξ-(CH2)4)]FKR-NH2)
- hemolysis at 100 µM [1]: 100%

Structure (SMILES): CC(C)C[C@H](NC(=O)CNC(=O)[C@H](CCCCN)NC(=O)CN)C(=O)N1Cc2ccccc2C[C@H]1C(=O)N1CC2CCCCC2[C@H]1C(=O)NCC(=O)N[C@@H](CCCCN)C(=O)N1Cc2ccccc2C[C@H]1C(=O)N1CC2CCCCC2[C@H]1C(=O)NCC(=O)N[C@@H](Cc1ccccc1)C(=O)N1Cc2ccccc2C[C@H]1C(=O)N1CC2CCCCC2[C@H]1C(=O)NCC(=O)N[C@@H](CCCCN)C(=O)N1Cc2ccccc2C[C@H]1C(=O)N1CC2CCCCC2[C@H]1C(=O)NCC(=O)N[C@@H](Cc1ccccc1)C(=O)N1Cc2ccccc2C[C@H]1C(=O)N1CC2CCCCC2[C@H]1C(=O)NCC(=O)N[C@@H](CCCCN)C(=O)N1Cc2ccccc2C[C@H]1C(=O)N1CC2CCCCC2[C@H]1C(=O)NCC(=O)N[C@@H](CCCCN)C(=O)N[C@@H](CCCNC(=N)N)C(N)=O (stereo partly drawn) (H-GKGL[Tic][Pro(3ξ,4ξ-(CH2)4)]GK[Tic][Pro(3ξ,4ξ-(CH2)4)]GF[Tic][Pro(3ξ,4ξ-(CH2)4)]GK[Tic][Pro(3ξ,4ξ-(CH2)4)]GF[Tic][Pro(3ξ,4ξ-(CH2)4)]GK[Tic][Pro(3ξ,4ξ-(CH2)4)]GKR-NH2)
- hemolysis at 100 µM [1]: 33.4%

Structure (SMILES): CC(C)C[C@H](NC(=O)CNC(=O)[C@H](CCCCN)NC(=O)CN)C(=O)N1Cc2ccccc2C[C@H]1C(=O)N1CC2CCCCC2[C@H]1C(=O)NCC(=O)N[C@@H](CCCCN)C(=O)N1Cc2ccccc2C[C@H]1C(=O)N1CC2CCCCC2[C@H]1C(=O)NCC(=O)N[C@@H](CC(C)C)C(=O)N1Cc2ccccc2C[C@H]1C(=O)N1CC2CCCCC2[C@H]1C(=O)NCC(=O)N[C@@H](CCCCN)C(=O)N1Cc2ccccc2C[C@H]1C(=O)N1CC2CCCCC2[C@H]1C(=O)NCC(=O)N[C@@H](CC(C)C)C(=O)N1Cc2ccccc2C[C@H]1C(=O)N1CC2CCCCC2[C@H]1C(=O)NCC(=O)N[C@@H](CCCCN)C(=O)N1Cc2ccccc2C[C@H]1C(=O)N1CC2CCCCC2[C@H]1C(=O)NCC(=O)N[C@@H](CCCCN)C(=O)N[C@@H](CCCNC(=N)N)C(N)=O (stereo partly drawn) (H-GKGL[Tic][Pro(3ξ,4ξ-(CH2)4)]GK[Tic][Pro(3ξ,4ξ-(CH2)4)]GL[Tic][Pro(3ξ,4ξ-(CH2)4)]GK[Tic][Pro(3ξ,4ξ-(CH2)4)]GL[Tic][Pro(3ξ,4ξ-(CH2)4)]GK[Tic][Pro(3ξ,4ξ-(CH2)4)]GKR-NH2)
- hemolysis at 100 µM [1]: 100%

Structure (SMILES): CC(C)C[C@H](NC(=O)CNC(=O)[C@H](CCCCN)NC(=O)CN)C(=O)N1Cc2ccccc2C[C@H]1C(=O)N1CC2CCCCC2[C@H]1C(=O)NCC(=O)N[C@@H](CC(C)C)C(=O)N1Cc2ccccc2C[C@H]1C(=O)N1CC2CCCCC2[C@H]1C(=O)NCC(=O)N[C@@H](CCCCN)C(=O)N1Cc2ccccc2C[C@H]1C(=O)N1CC2CCCCC2[C@H]1C(=O)NCC(=O)N[C@@H](CC(C)C)C(=O)N1Cc2ccccc2C[C@H]1C(=O)N1CC2CCCCC2[C@H]1C(=O)NCC(=O)N[C@@H](CCCCN)C(=O)N1Cc2ccccc2C[C@H]1C(=O)N1CC2CCCCC2[C@H]1C(=O)NCC(=O)N[C@@H](CC(C)C)C(=O)N1Cc2ccccc2C[C@H]1C(=O)N1CC2CCCCC2[C@H]1C(=O)NCC(=O)N[C@@H](CCCCN)C(=O)N[C@@H](CCCNC(=N)N)C(N)=O (stereo partly drawn) (H-GKGL[Tic][Pro(3ξ,4ξ-(CH2)4)]GL[Tic][Pro(3ξ,4ξ-(CH2)4)]GK[Tic][Pro(3ξ,4ξ-(CH2)4)]GL[Tic][Pro(3ξ,4ξ-(CH2)4)]GK[Tic][Pro(3ξ,4ξ-(CH2)4)]GL[Tic][Pro(3ξ,4ξ-(CH2)4)]GKR-NH2)
- MIC (Staphylococcus aureus): 100 µM (≈ 346 µg/mL)
- hemolysis at 100 µM [1]: 100%
- Activity (Salmonella typhimurium): inactive
